Experimental data published in patent US8071142B2, “Anti-bacterial use of extract from Morus australis poir. and compound kuwanon h” (Medical and Pharmaceutical Industry Technology and …, priority 2008, dated 2011).
≈ marks a conversion by molar mass, not a printed value. Like-named read-outs stand apart in the source and are kept apart here.

Tests used:
Type in all cases: cell-based
[1] = test system: Streptococcus pneumoniae (Erythromycin and Ampicillin Res. Clin. Isol.); assay: Anti-microbial test, MIC by broth dilution method, resistant Streptococcus pneumoniae; settings: for MIC: Streptococcus pneumoniae, read-out: MIC SP (EM & AM Res.)
Method: (§1) Streptococcus pneumoniae (ATCC 6301) and Streptococcus pneumoniae (Erythromycin and Ampicillin Res. Clin. Isol.), In Vitro Bacteria
(§2) Minimum inhibitory concentration (MIC) of sample on Streptococcus pneumoniae and Streptococcus pneumoniae (Erythromycin and Ampicillin Res. Clin. Isol.) was determined by the broth dilution method [Edwards J. R. et al. In vitro antibacterial activity of SM-7338, a carbapenem antibiotic with stability to dehydropeptidase I. Antimicrobial Agents Chemotherapy. 33: pp. 215-222, 1989.]. The test substance was dissolved (generally 100% DMSO) and serially diluted in solvent to desired stock concentrations. For each concentration tested, a 0.01 ml aliquot (1% DMSO final concentration) was added to a 48-well plate after which 0.99 ml of Tryptic Soy Broth (DIFCO, U.S.A.) containing 7% fetal bovine serum with 1-5×10^5 CFU/ml of Streptococcus pneumoniae (ATCC 6301) or Streptococcus pneumoniae (Erythromycin and Ampicillin Res. Clin. Isol.) was added. Thus, final maximal concentration of DMSO was 1% and the initial test substance concentration was 100 μg/ml or 30 μM. The plates were incubated at 37° C. for 20 hours and then visually examined and scored positive (+) for inhibition of growth or turbidity or negative (−) for no effect upon growth or turbidity. Vehicle-control and active reference agents were used as blank and positive controls, respectively. Each concentration was evaluated in duplicate.

[2] = test system: Streptococcus pneumoniae (ATCC 6301); assay: Anti-microbial test, MIC by broth dilution method, Streptococcus pneumoniae; settings: for MIC: Streptococcus pneumoniae, read-out: MIC SP
Method: as §1, §2

[3] = test system: Staphylococcus aureus, Methicillin Resistant (ATCC 33591); assay: Anti-microbial test, MIC by broth dilution method, methicillin resistant Staphylococcus aureus; settings: for MIC: Staphylococcus aureus, ATCC 33591 / MRSA, read-out: MIC MRSA
Method: (§3) Staphylococcus aureus (Smith), and Staphylococcus aureus, Methicillin Resistant (ATCC 33591), In Vitro Bacteria
(§4) Minimum inhibitory concentration (MIC) of sample on Staphylococcus aureus (Smith) and Staphylococcus aureus, Methicillin Resistant (ATCC 33591) was determined by the broth dilution method [Edwards J. R. et al. In vitro antibacterial activity of SM-7338, a carbapenem antibiotic with stability to dehydropeptidase I. Antimicrobial Agents Chemotherapy. 33: pp. 215-222, 1989]. The test substance was dissolved (generally 100% DMSO) and serially diluted in solvent to desired stock concentrations. For each concentration tested, a 0.01 ml aliquot (1% DMSO final concentration) was added to a 48-well plate after which 0.99 ml of Mueller-Hinton Broth (DIFCO, USA.) with 1-5×10^5 CFU/ml of Staphylococcus aureus (Smith) or Staphylococcus aureus, Methicillin Resistant (ATCC 33591) was added. Thus, final maximal concentration of DMSO was 1% and the initial test substance concentration was 100 μg/ml or 30 μM. The plates were incubated at 37° C. for 20 hours and then visually examined and scored positive (+) for inhibition of growth or turbidity or negative (−) for no effect upon growth or turbidity. Vehicle-control and active reference agents were used as blank and positive controls, respectively. Each concentration was evaluated in duplicate.

[4] = test system: Staphylococcus aureus (Smith); assay: Anti-microbial test, MIC by broth dilution method, Staphylococcus aureus (Smith); settings: for MIC: Staphylococcus aureus, read-out: MIC SA (Smith)
Method: as §3, §4

[5] = clinical isolates, Tryptic Soy Broth with 7% fetal bovine serum, 37° C., 20 hours, 1% DMSO
[6] = ATCC6301, Tryptic Soy Broth with 7% fetal bovine serum, 37° C., 20 hours, 1% DMSO
[7] = Mueller-Hinton Broth, 37° C., 20 hours, 1% DMSO, visual growth/turbidity

Compound | MIC [1, 5] | MIC [2, 6] | MIC [3, 7] | MIC [4, 7] | MIC ([2]; ATCC6301, 20 h) | MIC ([3]; 20 h) | MIC ([4]; 20 h) | further results
CC1(C)S[C@@H]2[C@H](NC(=O)[C@H](N)c3ccccc3)C(=O)N2[C@H]1C(=O)O [Ampicillin, reference compound] | 3 mg/L (≈ 8.59 µM) | 0.01 mg/L (≈ 0.0286 µM) | 30 mg/L (≈ 85.9 µM) | 0.1 mg/L (≈ 0.286 µM) |  |  |  | 
CC1=CC(c2c(O)cc(-c3cc4ccc(O)cc4o3)cc2O)C(C(=O)c2ccc(O)cc2O)[C@H](c2ccc(O)cc2O)C1 (stereo partly drawn) [P2-1] |  |  |  |  | 100 mg/L (≈ 172 µM) | > 100 mg/L | 3 mg/L (≈ 5.17 µM) | MIC ([1]; 20 h): 30 mg/L (≈ 51.7 µM)
CC(C)=CCc1c(-c2ccc(O)cc2O)oc2c(C3C=C(C)C[C@@H](c4ccc(O)cc4O)C3C(=O)c3ccc(O)cc3O)c(O)cc(O)c2c1=O (stereo partly drawn) [P2-2] | 30 mg/L (≈ 43.3 µM) |  |  |  | 30 mg/L (≈ 43.3 µM) | > 100 mg/L | 3 mg/L (≈ 4.33 µM) | 
CC(C)=CCCC1=CC(c2c(O)cc3c(c2O)C(=O)CC(c2ccc(O)cc2O)O3)C(C(=O)c2ccc(O)cc2O)C(c2ccc(O)cc2O)C1 (stereo not drawn) [P3-1] | 10 mg/L (≈ 14.4 µM) | 30 mg/L (≈ 43.2 µM) | 3 mg/L (≈ 4.32 µM) | 1 mg/L (≈ 1.44 µM) |  |  |  | 
CC(C)=CCc1c(O)ccc(C(=O)C2C(c3c(O)cc(O)c4c(=O)c(CC=C(C)C)c(-c5ccc(O)cc5O)oc34)C=C(C)CC2c2ccc(O)cc2O)c1O (stereo not drawn) [P3-2, 8-[6-[2,4-dihydroxy-3-(3-methyl-but-2-enyl)-benzoyl]-5-(2,4-dihydroxy-phenyl)-3-methyl-cyclohex-2-enyl]-2-(2,4-dihydroxy-phenyl)-5,7-dihydroxy-3-(3-methyl-but-2-enyl)-chromen-4-one] | 10 mg/L (≈ 13.1 µM) | 10 mg/L (≈ 13.1 µM) | 0.3 mg/L (≈ 0.394 µM) | 0.3 mg/L (≈ 0.394 µM) |  |  |  | 
CC(C)=CCc1c(-c2ccc(O)cc2O)oc2c3c(cc(O)c2c1=O)OC(C)(C)C=C3 [P3-3, 2-(2,4-dihydroxy-phenyl)-5-hydroxy-8,8-dimethyl-3-(3-methyl-but-2-enyl)-8H-pyrano[2,3-f]chromen-4-one] | 30 mg/L (≈ 71.4 µM) | 100 mg/L (≈ 238 µM) | 100 mg/L (≈ 238 µM) | 10 mg/L (≈ 23.8 µM) |  |  |  | 
CC(C)=CCC/C(C)=C/Cc1c(O)ccc2cc(-c3cc(O)cc(O)c3CC=C(C)C)oc12 [P3-4] |  |  |  |  | 30 mg/L (≈ 67.2 µM) | 100 mg/L (≈ 224 µM) | 3 mg/L (≈ 6.72 µM) | MIC ([1]; 20 h): 10 mg/L (≈ 22.4 µM)
Gentamicin [reference compound] |  |  |  |  |  |  |  | MIC SP (EM & AM Res.) [1, 5]: 100 mg/L; MIC SP ([2]; Tryptic Soy Broth with 7% fetal bovine serum, 37° C., 20 hours, 1% DMSO): 100 mg/L; MIC MRSA [3, 7]: 1 mg/L; MIC on MRSA relative to MIC on SA (Smith) ([3]; ratio MRSA / SA (Smith)): 10 times; MIC SA (Smith) [4, 7]: 0.1 mg/L
